Test results: the supplement of paper PMC3937590

Tests used:
Assay in all cases: -log10 GI50 (growth inhibition 50%) (-log10(M)); higher = more potent growth inhibition
LY2 = tested on: LY2
Procedure, shortened: (§1)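 A value carrying a < qualifier equals the top dose tested. Each compound was tested in triplicate on breast cancer cell lines for 72 hours at nine doses in 1:5 serial dilution, using a luminescence read-out against a time-zero plate. Nonlinear least squares fitting of a Gompertz curve gave GI50, the molar concentration causing the set level of growth inhibition, which is reported as its negative logarithm. The logarithm is base 10.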

184B5 = tested on: 184B5
Procedure, shortened: as §1

HCC70 = tested on: HCC70
Procedure, shortened: as §1

600MPE = tested on: 600MPE
Procedure, shortened: as §1

MDAMB231 = tested on: MDAMB231
Procedure, shortened: as §1

BT549 = tested on: BT549
Procedure, shortened: as §1

MCF7 = tested on: MCF7
Procedure, shortened: as §1

HCC2185 = tested on: HCC2185
Procedure, shortened: as §1

CAMA1 = tested on: CAMA1
Procedure, shortened: as §1

SKBR3 = tested on: SKBR3
Procedure, shortened: as §1

HCC202 = tested on: HCC202
Procedure, shortened: as §1

HCC1569 = tested on: HCC1569
Procedure, shortened: as §1

SUM229PE = tested on: SUM229PE
Procedure, shortened: as §1

HCC1954 = tested on: HCC1954
Procedure, shortened: as §1

HCC1806 = tested on: HCC1806
Procedure, shortened: as §1

AU565 = tested on: AU565
Procedure, shortened: as §1

SUM185PE = tested on: SUM185PE
Procedure, shortened: as §1

MDAMB468 = tested on: MDAMB468
Procedure, shortened: as §1

MDAMB175VII = tested on: MDAMB175VII
Procedure, shortened: as §1

HCC1143 = tested on: HCC1143
Procedure, shortened: as §1

HCC1937 = tested on: HCC1937
Procedure, shortened: as §1

MDAMB436 = tested on: MDAMB436
Procedure, shortened: as §1

S1 = tested on: S1
Procedure, shortened: as §1

MDAMB134VI = tested on: MDAMB134VI
Procedure, shortened: as §1

MCF10A = tested on: MCF10A
Procedure, shortened: as §1

BT474 = tested on: BT474
Procedure, shortened: as §1

HS578T = tested on: HS578T
Procedure, shortened: as §1

MCF12A = tested on: MCF12A
Procedure, shortened: as §1

UACC893 = tested on: UACC893
Procedure, shortened: as §1

SUM159PT = tested on: SUM159PT
Procedure, shortened: as §1

HCC1428 = tested on: HCC1428
Procedure, shortened: as §1

ZR75B = tested on: ZR75B
Procedure, shortened: as §1

184A1 = tested on: 184A1
Procedure, shortened: as §1

UACC812 = tested on: UACC812
Procedure, shortened: as §1

HBL100 = tested on: HBL100
Procedure, shortened: as §1

HCC1187 = tested on: HCC1187
Procedure, shortened: as §1

SUM1315MO2 = tested on: SUM1315MO2
Procedure, shortened: as §1

HCC1395 = tested on: HCC1395
Procedure, shortened: as §1

MDAMB415 = tested on: MDAMB415
Procedure, shortened: as §1

HCC1419 = tested on: HCC1419
Procedure, shortened: as §1

HCC3153 = tested on: HCC3153
Procedure, shortened: as §1

ZR751 = tested on: ZR751
Procedure, shortened: as §1

MCF10F = tested on: MCF10F
Procedure, shortened: as §1

HCC38 = tested on: HCC38
Procedure, shortened: as §1

SUM149PT = tested on: SUM149PT
Procedure, shortened: as §1

T47D = tested on: T47D
Procedure, shortened: as §1

BT483 = tested on: BT483
Procedure, shortened: as §1

SUM225CWN = tested on: SUM225CWN
Procedure, shortened: as §1

MDAMB453 = tested on: MDAMB453
Procedure, shortened: as §1

MX1 = tested on: MX1
Procedure, shortened: as §1

T47D_KBluc = tested on: T47D_KBluc
Procedure, shortened: as §1

MDAMB361 = tested on: MDAMB361
Procedure, shortened: as §1

BT20 = tested on: BT20
Procedure, shortened: as §1

SUM52PE = tested on: SUM52PE
Procedure, shortened: as §1

MDAMB157 = tested on: MDAMB157
Procedure, shortened: as §1

Compound: Nc1ccn([C@@H]2O[C@H](CO)[C@@H](O)C2(F)F)c(=O)n1 [Gemcitabine]
- -log10 GI50 (LY2): 7.62
- -log10 GI50 (184B5): 6.14
- -log10 GI50 (HCC70): 4.58
- -log10 GI50 (600MPE): 7.64
- -log10 GI50 (MDAMB231): 5.93
- -log10 GI50 (BT549): 8.08
- -log10 GI50 (MCF7): 4.77
- -log10 GI50 (HCC2185): 7.61
- -log10 GI50 (CAMA1): 6.79
- -log10 GI50 (SKBR3): 7.97
- -log10 GI50 (HCC202): 4.82
- -log10 GI50 (HCC1569): 6.76
- -log10 GI50 (SUM229PE): 7.3
- -log10 GI50 (HCC1954): 4.51
- -log10 GI50 (HCC1806): 8.72
- -log10 GI50 (AU565): 7.81
- -log10 GI50 (SUM185PE): 6.44
- -log10 GI50 (MDAMB468): 7.01
- -log10 GI50 (MDAMB175VII): 8.12
- -log10 GI50 (HCC1143): 7.92
- -log10 GI50 (HCC1937): 5.97
- -log10 GI50 (MDAMB436): 7.49
- -log10 GI50 (S1): 7.04
- -log10 GI50 (MDAMB134VI): 2.85
- -log10 GI50 (MCF10A): 7.7
- -log10 GI50 (BT474): 4.88
- -log10 GI50 (HS578T): 5.66
- -log10 GI50 (MCF12A): 7.17
- -log10 GI50 (UACC893): 3.54
- -log10 GI50 (SUM159PT): 7.99
- -log10 GI50 (HCC1428): 3.58
- -log10 GI50 (ZR75B): 7.34
- -log10 GI50 (184A1): 6.16
- -log10 GI50 (UACC812): 7.75
- -log10 GI50 (HBL100): 7.64
- -log10 GI50 (HCC1187): 5.07
- -log10 GI50 (SUM1315MO2): 6.91
- -log10 GI50 (HCC1395): 6.47
- -log10 GI50 (MDAMB415): 6.05
- -log10 GI50 (HCC1419): 4.81
- -log10 GI50 (HCC3153): 7.19
- -log10 GI50 (ZR751): 7.45
- -log10 GI50 (MCF10F): 7.08
- -log10 GI50 (HCC38): 8.17
- -log10 GI50 (SUM149PT): 7.84
- -log10 GI50 (T47D): 6.02

Compound: CN(Cc1cnc2nc(N)nc(N)c2n1)c1ccc(C(=O)N[C@@H](CCC(=O)O)C(=O)O)cc1 [Methotrexate]
- -log10 GI50 (LY2): 7.47
- -log10 GI50 (BT483): 3.63
- -log10 GI50 (184B5): 7.37
- -log10 GI50 (HCC70): < 3.48
- -log10 GI50 (600MPE): 5.39
- -log10 GI50 (MDAMB231): < 3.48
- -log10 GI50 (BT549): < 3.48
- -log10 GI50 (SUM225CWN): < 3.48
- -log10 GI50 (MDAMB453): < 3.48
- -log10 GI50 (MX1): 7.82
- -log10 GI50 (MCF7): 7.34
- -log10 GI50 (HCC2185): < 3.48
- -log10 GI50 (CAMA1): 6.97
- -log10 GI50 (T47D_KBluc): 6.57
- -log10 GI50 (SKBR3): 6.28
- -log10 GI50 (HCC202): 7.69
- -log10 GI50 (HCC1569): < 3.48
- -log10 GI50 (SUM229PE): < 3.48
- -log10 GI50 (HCC1954): 8.07
- -log10 GI50 (HCC1806): 5.76
- -log10 GI50 (AU565): 5.36
- -log10 GI50 (SUM185PE): < 3.48
- -log10 GI50 (MDAMB175VII): < 3.48
- -log10 GI50 (MDAMB361): 6.8
- -log10 GI50 (HCC1143): 7.62
- -log10 GI50 (HCC1937): < 3.48
- -log10 GI50 (MDAMB134VI): < 3.48
- -log10 GI50 (MCF10A): 7.39
- -log10 GI50 (BT474): < 3.48
- -log10 GI50 (HS578T): < 3.48
- -log10 GI50 (MCF12A): 5.22
- -log10 GI50 (SUM159PT): < 3.48
- -log10 GI50 (BT20): < 3.48
- -log10 GI50 (HCC1428): < 3.48
- -log10 GI50 (ZR75B): < 3.48
- -log10 GI50 (184A1): 7.18
- -log10 GI50 (HBL100): < 3.48
- -log10 GI50 (HCC1187): 5.59
- -log10 GI50 (SUM1315MO2): < 3.48
- -log10 GI50 (HCC1395): < 3.48
- -log10 GI50 (MDAMB415): < 3.48
- -log10 GI50 (HCC1419): 7.24
- -log10 GI50 (HCC3153): < 3.48
- -log10 GI50 (SUM52PE): < 3.48
- -log10 GI50 (ZR751): 7.31
- -log10 GI50 (MDAMB157): 7.12
- -log10 GI50 (MCF10F): 7
- -log10 GI50 (HCC38): < 3.48
- -log10 GI50 (SUM149PT): < 3.48
- -log10 GI50 (T47D): < 3.48

Compound: CCN(CC)CCNC(=O)c1c(C)[nH]c(/C=C2\C(=O)Nc3ccc(F)cc32)c1C [Sunitinib malate]
- -log10 GI50 (LY2): 5.14
- -log10 GI50 (BT483): 4.73
- -log10 GI50 (184B5): 5.28
- -log10 GI50 (HCC70): 5.6
- -log10 GI50 (600MPE): 5.4
- -log10 GI50 (MDAMB231): 5.44
- -log10 GI50 (BT549): 5.29
- -log10 GI50 (SUM225CWN): 5.21
- -log10 GI50 (MDAMB453): 5.3
- -log10 GI50 (MX1): 5.27
- -log10 GI50 (MCF7): 5.23
- -log10 GI50 (HCC2185): 4.7
- -log10 GI50 (CAMA1): 5.07
- -log10 GI50 (T47D_KBluc): 5.12
- -log10 GI50 (SKBR3): 5.17
- -log10 GI50 (HCC202): 5.03
- -log10 GI50 (HCC1569): 5.14
- -log10 GI50 (SUM229PE): 5.46
- -log10 GI50 (HCC1954): 5.26
- -log10 GI50 (HCC1806): 5.3
- -log10 GI50 (AU565): 5.42
- -log10 GI50 (SUM185PE): 5.98
- -log10 GI50 (MDAMB175VII): 5.18
- -log10 GI50 (MDAMB361): 4.92
- -log10 GI50 (HCC1143): 5.16
- -log10 GI50 (HCC1937): 5.16
- -log10 GI50 (MDAMB134VI): 4.97
- -log10 GI50 (MCF10A): 5.27
- -log10 GI50 (BT474): 4.78
- -log10 GI50 (HS578T): 5.37
- -log10 GI50 (MCF12A): 5.19
- -log10 GI50 (SUM159PT): 5.81
- -log10 GI50 (BT20): 4.79
- -log10 GI50 (HCC1428): 5.29
- -log10 GI50 (184A1): 5.37
- -log10 GI50 (HBL100): 5.34
- -log10 GI50 (HCC1187): 5.26
- -log10 GI50 (SUM1315MO2): 5.12
- -log10 GI50 (HCC1395): 5.35
- -log10 GI50 (MDAMB415): 5.25
- -log10 GI50 (HCC1419): 4.72
- -log10 GI50 (HCC3153): 4.96
- -log10 GI50 (SUM52PE): 5.94
- -log10 GI50 (ZR751): 4.88
- -log10 GI50 (MDAMB157): 5.21
- -log10 GI50 (MCF10F): 5.39
- -log10 GI50 (HCC38): 5.24
- -log10 GI50 (SUM149PT): 5.57
- -log10 GI50 (T47D): 4.94
